The results in this text go back to US20030104443A1, “AFAP sequences, polypeptides, antibodies and methods” (University of West Virginia, priority 2001, published 2003).

The test system of assay [1] is C3H10T1/2 cells. Put plainly: Immunofluorescence of actin structures after PMA treatment. It counts as cell-based. The protocol: For PKC activation with PMA, C3H10T1/2 cells were transfected with plasmids encoding AFAP-110. Twenty-four hours after transfections, the cells were serum starved overnight. PMA at 100 nM was used to activate PKC for 60 min. Cells were fixed and permeablized as previously described (Qian et al., 1998, supra). After washing, cells were labeled with BODIPY 650/665 phalloidin (Molecular Probes, Eugene, Oreg.) and 4C3 antibody for 20 min. Cells were washed again and then labeled with ALEXA 488 (Molecular Probes) for 25 min. Cells were washed and mounted on slides with Fluoromount (Fisher, Pittsburgh, Pa.). For serum induction experiments, C3H10T1/2 cells were serum starved overnight, and then serum-complete media was added. Cells on coverslips were washed and fixed at 15-min time points >2 h. Polyclonal antibody F1 and TRITC-labeled anti-rabbit secondary antibody were used to visualize endogenous AFAP-110, with washings as above. BODIPY 650/665 phalloidin was used to visualize actin. A Zeiss LSM 510 microscope (Thornwood, N.Y.) was used to gather images, which were recolored from grayscale. Scale bars were generated and inserted by LSM 510 software (Carl Zeiss, Thornwood, N.Y.).
Immunofluorescence labeling and imaging was carried out as described. C3H10T1/2 cells expressing AFAP-110 were treated with either 100 nM PMA (A1-A3) or 100 nM 4α-PDD (A4-A6) for 15 min after overnight serum starvation. AFAP-110 is represented in red (A1 and A4), whereas actin is represented in green (A2 and A5). (A3 and A6) Overlap images of AFAP-110 and actin. Arrows indicate colocalization of AFAP-110 with dynamic actin structures: white arrows, filopodia; gray arrows, lamellipodia; black arrows, actin filaments in the top panel and disrupted actin filaments/rosettes in the bottom panel. […] Immunofluorescence labeling and imaging were carried out as described in Experimental Procedures. C3H10T1/2 cells coexpressing GFP-AFAP-110 (B1) and myristoylated, Flag-tagged PKC were labeled to show Flag-tagged PKC (B2) and actin (B3). Arrows indicate colocalization of AFAP-110 with dynamic actin structures: white arrows label filopodia and black arrows label lamellipodia. […] Immunofluorescence labeling and imaging were carried out as described. C3H10T1/2 cells were transfected with pCMV-GFP-AFAP-110 (C1-C6) and pCMV-GFP-AFAP^Δ180-226 (C7-C9). PMA at 100 nM was used to stimulate the cells for 1 h. C1, C4, and C7; green GFP fusion protein images; C2, C5, and C8; X actin images; C3, C6, and C9, overlap images of GFP fusion protein and actin images.

For assay [2], the system named is AFAP-110 in C3H10T1/2 cells. In words: Phosphoamino acid analysis of AFAP-110 after PMA treatment. It counts as cell-based. The settings on record: 100 nM PMA, 15 min; relative to 4α-PDD treatment; densitometry. The protocol:
(1, PKCα (0.5 μg); 2, PKCα (0.5 μg)+rAFAP-110 (10 μg); 3, rAFAP-110 (10 μg)). Data are representative of three experiments. […] C3H10T1/2 cells were serum-starved in phosphate-free media supplemented with radiolabeled ^32P-orthophosphate overnight and treated with 100 nM PMA, 100 nM 4α-PDD, or DMSO, the vehicle used. Cells were lysed after 15 min and AFAP-110 was immunoprecipitated using the antibody F1. Radiolabeled AFAP-110 was isolated by SDS-PAGE and subjected to phosphoamino acid analysis.
To test whether AFAP-110 could be phosphorylated in cells in response to PKC activation in vivo, serum-starved C3H10T1/2 fibroblasts labeled with ^32P-orthophosphate were stimulated with 100 nM PMA for 15 min to activate PKC. Cos-1 cells were maintained and transfected as previously described (Guappone and Flynn, 1997, supra). C3H10T1/2 cells were cultured as previously described (Qian et al., 2000, supra). Transient transfections of C3H10T1/2 cells were carried out using SuperFect (QIAGEN, Santa Clarita, Calif.) as previously described (Qian et al., 2000, supra).
Phosphoamino Acid Analysis C3H10T1/2 cells were grown to 60% confluence in 100-mm culture dishes, serum starved overnight, and then stimulated with 100 nM PMA or 100 nM 4α-PDD for 15 min. […] Relative intensity compared with background of radiation from spots was quantitated with ImageQuant software (Molecular Dynamics, Sunnyvale, Calif.).

The test system of assay [3] is actin filaments. In words: Confocal microscopy of rhodamine-phalloidin-labeled actin filaments. The settings on record: 0.5 μM protein, 2 μM actin filaments; FIG. 13B. It counts as biochemical. The source says: (§1) Binding constants were derived from the sedimentation of rAFAP-110 by actin. Accordingly, rAFAP-110 in the pellet and supernatant correspond to the bound and free rAFAP-110, respectively. The sum of densities of rAFAP-110 bands in the supernatant and pellet corresponds to the total mass of rAFAP-110 in the sample. The data representing the bound rAFAP-110 as a function of free rAFAP-110 were fit by nonlinear least squares to both the Langmuir (B=BMAX/(1+Kd/F)) and […] 2 μM F-actin filaments and different concentrations of rAFAP-110 in 5 mM MgCl2, 1 mM EGTA, 2 mM ATP, and 50 mM KCl at 20,800×g for 30 min at 4° C. After the centrifugation, both supernatant and pellets were analyzed by SDS-PAGE gel. Confocal microscopy assays were performed as described (Ishikawa et al., 1998, J. Biol. Chem., 273:26991-26997). Briefly, 2 μM F-actin containing 10% rhodamine-phalloidin-labeled F-actin were mixed with different concentrations of rAFAP-110 or other purified recombinant proteins in 5 mM MgCl2, 1 mM EGTA, 2 mM ATP, and 50 mM KCl at RT for 30 min. After the incubation, the reactions were applied between glass slides and coverslips and observed under confocal microscopy (Zeiss, Oberkochen, Germany). Samples for negative staining were adsorbed to grids coated with nitrocellulose and stabilized with carbon (Ernest F. Fullam, Latham, N.Y.). Unbound protein was removed by successive washes with buffer and water before staining with 1% uranylacetate (Cooper and Pollard, 1982, Methods Enzymol., 85(PtB), 182-210; Pollard and Cooper, 1982, Methods Enzymol., 85(PtB), 211-233).
To further test AFAP-110's capability to cross-link actin filaments, we analyzed rhodamine-phalloidin-labeled actin filaments for cross-linking by confocal microscopy. In FIG. 9A, purified rAFAP-110 or rAFAP-110^Δcterm were incubated with rhodamine-phalloidin-labeled actin filaments. […] 1, actin filaments only; 2, rAFAP-110 with actin filaments; 3, rAFAP-110^Δcterm with actin filaments. FIG. 9B presents confocal microscopy images. Different concentrations of α-actinin (top two panels, low=0.0625 μM and high=1.25 μM) and rAFAP-110 (bottom two panels, low=0.106 μM and high=2.1 μM) were incubated with rhodamine-phalloidin-labeled actin filaments. […] Actin filaments labeled with rhodamine-phalloidin appeared uniformly fluorescent in the absence of an actin binding protein (FIG. 9A1). […] Electron microscopy was used to confirm rAFAP-110's ability to cross-link actin filaments.

For assay [4], the system named is actin filaments. In words: Low-speed cosedimentation assay (20,800×g), actin filament cross-linking. It counts as biochemical. The settings on record: 0.5 μM protein, 2 μM actin filaments; FIG. 13A.
Excerpt: as §1
Actin filaments are unable to efficiently pellet at 20,800×g unless cross-linked to form heavier particles (either isotropic networked or bundled actin filaments; Cooper and Pollard, 1982, supra; Pollard and Cooper, 1982, supra; Meyer et al., 1990, J. Cell. Biol. 110:2013-2024; Wachsstock et al., 1993, Biophys. J., 65: 205-214; Rybakova et al., 1996, J. Cell. Biol., 135:661-672). […] The purified recombinant proteins were incubated with actin filaments and then were centrifuged at 20,800×g. Both supernatants (S) and pellets (P) were applied to SDS-PAGE gel, followed by Coomassie staining. 1, rAFAP-110 with actin filaments; 2, rAFAP-110^Δcterm with actin filaments; 3, rAFAP-110 only; 4, rAFAP-110^Δcterm only; 5, actin filaments only. FIG. 8B is a graph of cross-linked actin filaments versus free rAFAP-110. rAFAP-110 at 0.05,0.11,0.21,0.43, 0.86, and 2.14 μM was incubated with the 2 μM concentration of G-actin polymerized into actin filaments. After the incubation, the reactions were centrifuged at 20,800×g. Both supernatants and pellets were applied to SDS-PAGE gel, followed by the Western blot analysis to detect rAFAP-110 and Coomassie blue staining to detect actin, respectively. The data of cross-linked actin filaments and free rAFA-110 were gathered by scanning densitometry of SDS-PAGE gel analysis.

Setting [5] is: after treatment with 100 nM PMA.

On to `CCCCCCCCCCCCCC(=O)O[C@@H]1[C@@H](C)[C@@]2(O)[C@@H](C=C(CO)C[C@]3(O)C(=O)C(C)=C[C@@H]23)[C@@H]2C(C)(C)[C@]12OC(C)=O` [PMA], for which, in assay [1] (100 nM PMA), the “time in which the changes occur” value is no more than 15 min. For the same molecule, in assay [1] (100 nM PMA, serum-starved cells expressing AFAP-110), the “actin structures upon PMA treatment” value was “Lamellipodia, filopodia, and rosettes appear”. Further, in assay [1] (setting [5]), the “time by which cells completely reverted to quiescent phenotype” value is no more than 6 h and the “time by which changes largely revert” value was no more than 2 h. Also, in assay [2], the “increase in phosphoserine of AFAP-110” value is reported as 3.9 fold and the “increase in phosphothreonine of AFAP-110” value is 5.7 fold.

B1: PKCα phosphorylated rAFAP-110: rAFAP-110 phosphorylated with recombinant PKCα (protein, UniProt Q90738 1-729, looked up)
Actin filament-associated …: MEELIVELRLFLELLDHEYLTSTVREKKAVITNILLRIQSSKGFEIKEHVQKPEVANSLPAPPQMPLPEIPQQWLPPDNGPPPLPTSSLPEGYYEEAVPVSPGKAPEYITSNYDSDAMSSSYESYDEEEEDGKGKKMRHQWPSEEASMDLVKDAKICAFLLRKKRFGQWTKLLCVIKENKLLCYKSSKDQQPQMELLLNDCSITYIPKDSKKKKHELKISHQGADALVLAVQSKEQAEQWLKVIKDVCSNCTGTVDSDGPLSSSPVHKTELEKKLSSERPSSDGEGAVENGITTVCNGKEQVKRKKSSKTEAKGTVTKVTGKKITKIIGLGKKKPSTDEQTSSAEEDVPTCGYLNVLSNNRWRERWCRVKDNKLIFHKDRTDLKTHIVSIPLRGCEVIPGLDSKHPLTFRLLRNGQEVAVLEASSSEDMGRWIGMLLAETGSSTDPGALHYDYIDVEMTASVIQAAKQTFCFMNRRVISTNPYRGSTANGYACPSGMALHYDDVPCINGSFKGKKPPATANGITGKVRTLNSQPKKPESVSCVKRTASNAEQYKYGKNRVEAVAKRLQSKEEELLKRKEALRNRLAQLRKERKDLRAAIEVNAGRKTQVILEDKLKKLEEECKTKEAERVNLELELTEVKESLKKALAGGITLGLAIEPKSGTSSPQSPIFKHRTLENSPISSCDTSDTECSIPVNSAAALKRPPSSNNSPCRGHVLRKAKEWEMKNGT
modifications: PKCalpha phosphorylated
notes: rAFAP-110 phosphorylated with recombinant PKCα
As to B1, in assay [3], the “confocal fluorescence pattern of actin filaments” value is given as “large aggregates of fluorescence”. Besides, the “ability to coprecipitate actin filaments compared with rAFAP-110” value in assay [4] is reported as “increased the ability of rAFAP-110 to coprecipitate actin filaments”.
